Measurements reported in patent publication US20110178170A1, “GRISEOFULVIN ANALOGUES FOR THE TREATMENT OF CANCER BY INHIBITION OF CENTROSOMAL CLUSTERING” (DKFZ Deutsches Krebsforschungszentrum, priority 2007, published 2011).

Key:
cancer cells = settings: compared with griseofulvin; cited from earlier work
tumor cell lines = assay: cell-based screening for inhibition of centrosomal clustering (multipolar mitotic spindles); set-up: species or system human; settings: several different tumor cell lines; screening of Penicillium extracts
Description: Supernumerary centrosomes do almost exclusively occur in a wide variety of neoplastic disorders but not in non-transformed cells. Therefore, inhibition of centrosomal clustering with consequential induction of multipolar spindles and subsequent cell death would specifically target tumor cells with no impact on normal cells with a regular centrosome content. To identify cell-permeable small molecules that inhibit centrosomal clustering in cells with supernumerary centrosomes, we developed a cell-based screening strategy founded on the visualization of microtubules and chromatin.
Therefore, we decided to screen a fungal extract library for compounds inhibiting centrosomal clustering. The fungal extracts were selected based on a chemotaxonomic screening approach, in order to increase the chemodiversity to be tested.
The FIGS. 1 to 12 give representative examples of compounds, which have been prepared in the framework of the present invention, together with their activity, which has been determined as described below.
Cell Culture. All cell lines were cultured in Dulbecco's modified Eagle's Medium (DMEM; PAA Laboratories, Pasching, Austria) supplemented with 10% FCS (PAA). […]
Immunofluorescence. […] Immunostained cells were examined using a Zeiss Axiovert 200 M fluorescence microscope (Göttingen, Germany). […]

SMILES | inhibiting effect on cancer cells relative to griseofulvin (cancer cells) | inhibition of centrosome coalescence (tumor cell lines)
CCCOC1=CC(=O)C[C@@H](C)[C@]12Oc1c(Cl)c(OC)cc(OC)c1C2=O | stronger inhibiting effect on cancer cells than griseofulvin itself | –
COC1=CC(=O)C[C@@H](C)[C@]12Oc1c(Cl)c(OC)cc(OC)c1C2=O [griseofulvin, (2-5-trans)-7-chloro-2,4,6-trimethoxy-6-methylspiro-[benzofuran-2(3H), 1-(2)-cyclohexene]-3,4-dione] | – | inhibitor of centrosome coalescence
